Source: the supplement of paper PMC10307832

Assays:
Assay in all cases: relative viability (nuclei count vs DMSO), 5 days (fraction); higher = more cells survive
[1] = compound: CC(O)(CS(=O)(=O)c1ccc(F)cc1)C(=O)Nc1ccc(C#N)c(C(F)(F)F)c1 [Bicalutamide] + N=C(N)NC(=N)NCCc1ccccc1 [Phenformin] (partner 250 µM)
Outline: (§1)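 For relative viability, nuclei counts in treated wells were divided by those in vehicle wells. Lung cancer cell lines had been pin-tool dosed in 1536-well plates the day after seeding and cultured for 5 days, then fixed and stained in one step (final 0.05% Triton X-100, 1% formaldehyde, 1 ug/ml Hoechst) and imaged at 4×. Doses were one drug alone or a fixed anchor-drug dose plus five library-drug doses (not always all listed) in √10 steps, and values are duplicate-plate medians.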

[2] = compound: C(C(=O)C(=O)O)Br [Bromopyruvate] + Cc1cc(Nc2cc(N3CCN(C)CC3)nc(Sc3ccc(NC(=O)C4CC4)cc3)n2)n[nH]1 [Tozasertib] (partner 0.1 µM)
Outline: as §1

[3] = compound: C(C(=O)C(=O)O)Br [Bromopyruvate] + Nc1nc2[nH]cc(CCc3ccc(C(=O)N[C@@H](CCC(=O)O)C(=O)O)cc3)c2c(=O)[nH]1 [Pemetrexed] (partner 0.2 µM)
Outline: as §1

Bromopyruvate + AZD7762 = compound: C(C(=O)C(=O)O)Br [Bromopyruvate] + NC(=O)Nc1cc(-c2cccc(F)c2)sc1C(=O)N[C@H]1CCCNC1 [AZD7762] (partner 0.2 µM)
Outline: as §1

| Cell Line | relative viability ([1]; first compound 0.08 µM) | relative viability ([1]; first compound 0.253 µM) | relative viability ([1]; first compound 0.8 µM) | relative viability ([1]; first compound 2.53 µM) | relative viability ([2]; first compound 1 µM) | relative viability ([2]; first compound 3.162 µM) | relative viability ([2]; first compound 10 µM) | relative viability ([2]; first compound 31.62 µM) | relative viability ([2]; first compound 100 µM) | relative viability ([3]; first compound 1 µM) | relative viability ([3]; first compound 3.162 µM) | relative viability ([3]; first compound 10 µM) | relative viability ([3]; first compound 31.62 µM) | relative viability ([3]; first compound 100 µM) | relative viability (Bromopyruvate + AZD7762; first compound 1 µM) | relative viability (Bromopyruvate + AZD7762; first compound 3.162 µM) | relative viability (Bromopyruvate + AZD7762; first compound 10 µM) | relative viability (Bromopyruvate + AZD7762; first compound 31.62 µM) | relative viability (Bromopyruvate + AZD7762; first compound 100 µM) |
| --- | --- | --- | --- | --- | --- | --- | --- | --- | --- | --- | --- | --- | --- | --- | --- | --- | --- | --- | --- |
| HOP-62 | 0.681 | 0.651 | 0.769 | 0.698 | 0.39 | 0.386 | 0.381 | 0.339 | 0.351 | 0.302 | 0.321 | 0.326 | 0.356 | 0.207 | 0.498 | 0.573 | 0.473 | 0.444 | 0.665 |
| LC-2-ad | 0.607 | 0.529 | 0.654 | 0.56 | 0.45 | 0.475 | 0.486 | 0.438 | 0.428 | 0.294 | 0.287 | 0.269 | 0.298 | 0.298 | 0.885 | 0.863 | 0.881 | 0.812 | 0.799 |
| LCLC-97TM1 | 0.442 | 0.426 | 0.463 | 0.443 | 0.195 | 0.206 | 0.212 | 0.182 | 0.128 | 0.182 | 0.152 | 0.187 | 0.164 | 0.195 | 0.224 | 0.375 | 0.207 | 0.275 | 0.236 |
| LCLC-103H | 0.305 | 0.326 | 0.379 | 0.355 | 0.515 | 0.446 | 0.466 | 0.466 | 0.544 | 0.468 | 0.465 | 0.472 | 0.446 | 0.48 | 0.726 | 0.804 | 0.951 | 0.751 | 0.901 |
| LK-2 | 0.526 | 0.198 | 0.498 | 0.629 | 0.171 | 0.169 | 0.174 | 0.179 | 0.177 | 0.346 | 0.23 | 0.312 | 0.237 | 0.261 | 0.423 | 0.458 | 0.266 | 0.474 | 0.387 |
| LOU-NH91 | 0.745 | 0.493 | 0.814 | 0.821 | 0.729 | 0.643 | 0.654 | 0.685 | 0.672 | 0.402 | 0.371 | 0.366 | 0.402 | 0.443 | 0.801 | 0.755 | 0.742 | 0.771 | 0.837 |
| LU99A | 0.917 | 0.715 | 0.997 | 0.663 | 0.344 | 0.253 | 0.285 | 0.233 | 0.325 | 0.178 | 0.21 | 0.169 | 0.202 | 0.165 | 0.318 | 0.364 | 0.346 | 0.362 | 0.341 |
| NCI-H520 | 0.707 | 0.421 | 0.61 | 0.366 | 0.467 | 0.448 | 0.395 | 0.422 | 0.328 | 0.64 | 0.713 | 0.691 | 0.598 | 0.629 | – | – | – | – | – |
| NCI-H661 | 0.289 | 0.284 | 0.289 | 0.251 | 0.35 | 0.361 | 0.335 | 0.348 | 0.362 | 0.905 | 0.944 | 0.985 | 0.889 | 0.907 | – | – | – | – | – |
